± gives the standard deviation of the averaged measurements.
Key:
TIOGUANINE [1] = compound: T1, Nc1nc2[nH]cnc2c(=S)[nH]1 [TIOGUANINE]; assay: surviving fraction relative to DMSO-only wells; higher = less growth inhibition; conditions: exposure time: 5 days
Summary of the method: (§1)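 Tumour cell lines were grown to log phase and seeded at 250–500 cells per well in 384-well plates. They were exposed continuously to inhibitors at 0.5, 1, 5, 10, 50, 100, 500 and 1000 nM for five days, beginning 24 hours after seeding. Surviving fraction is CellTiter-Glo luminescence normalised to the median of DMSO-only wells.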

MDV3100 [2] = compound: T2, CNC(=O)c1ccc(N2C(=S)N(c3ccc(C#N)c(C(F)(F)F)c3)C(=O)C2(C)C)cc1F [MDV3100]; assay: as above; conditions: exposure time: 5 days
Summary of the method: as §1

[3] = compound: Cn1cc(C2=Nc3cc(NC(=O)C(N)C4CCCCC4)cc4c3C2=CNNC4=O)cn1; assay: as above; conditions: exposure time: 5 days
Summary of the method: as §1

SNX-5422 [4] = compound: T3, CC1(C)CC(=O)c2c(C(F)(F)F)nn(-c3ccc(C(N)=O)c(N[C@H]4CC[C@H](OC(=O)CN)CC4)c3)c2C1 [SNX-5422]; assay: as above; conditions: exposure time: 5 days
Summary of the method: as §1

BI-2536 [5] = compound: T4, CC[C@@H]1C(=O)N(C)c2cnc(Nc3ccc(C(=O)NC4CCN(C)CC4)cc3OC)nc2N1C1CCCC1 [BI-2536]; assay: as above; conditions: exposure time: 5 days
Summary of the method: as §1

AFATINIB [6] = compound: T5, CN(C)C/C=C/C(=O)Nc1cc2c(Nc3ccc(F)c(Cl)c3)ncnc2cc1O[C@H]1CCOC1 [AFATINIB]; assay: as above; conditions: exposure time: 5 days
Summary of the method: as §1

CANERTINIB [7] = compound: T6, C=CC(=O)Nc1cc2c(Nc3ccc(F)c(Cl)c3)ncnc2cc1OCCCN1CCOCC1 [CANERTINIB]; assay: as above; conditions: exposure time: 5 days
Summary of the method: as §1

SAPACITABINE [8] = compound: T7, CCCCCCCCCCCCCCCC(=O)Nc1ccn([C@@H]2O[C@H](CO)[C@@H](O)[C@@H]2C#N)c(=O)n1 [SAPACITABINE]; assay: as above; conditions: exposure time: 5 days
Summary of the method: as §1

TIOGUANINE [9] = compound: T1, TIOGUANINE; assay: area under dose-response curve of surviving fraction (unscaled, Aref=0) (surviving fraction x log10(nM)); higher = more resistant; conditions: exposure time: 5 days; dose range 0.5-1000 nM
Summary of the method: (§2)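 Surviving fractions were fitted by 3-parameter logistic regression in the drc R package to give dose-response survival curves. They came from tumour cell lines treated for five days with eight inhibitor concentrations from 0.5 to 1000 nM and read by CellTiter-Glo luminescence against DMSO-only wells. The area under the curve is the unscaled activity area. It was calculated over log10 dose with Aref = 0.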

MDV3100 [10] = compound: T2, MDV3100; assay: as above; conditions: exposure time: 5 days; dose range 0.5-1000 nM
Summary of the method: as §2

[11] = compound: Cn1cc(C2=Nc3cc(NC(=O)C(N)C4CCCCC4)cc4c3C2=CNNC4=O)cn1; assay: as above; conditions: exposure time: 5 days; dose range 0.5-1000 nM
Summary of the method: as §2

SNX-5422 [12] = compound: T3, SNX-5422; assay: as above; conditions: exposure time: 5 days; dose range 0.5-1000 nM
Summary of the method: as §2

BI-2536 [13] = compound: T4, BI-2536; assay: as above; conditions: exposure time: 5 days; dose range 0.5-1000 nM
Summary of the method: as §2

AFATINIB [14] = compound: T5, AFATINIB; assay: as above; conditions: exposure time: 5 days; dose range 0.5-1000 nM
Summary of the method: as §2

SAPACITABINE [15] = compound: T7, SAPACITABINE; assay: as above; conditions: exposure time: 5 days; dose range 0.5-1000 nM
Summary of the method: as §2

CANERTINIB [16] = compound: T6, CANERTINIB; assay: as above; conditions: exposure time: 5 days; dose range 0.5-1000 nM
Summary of the method: as §2

For C33A CERVIX, the surviving fraction (TIOGUANINE [1]; 0.5 nM) was 0.807 ± 0.079, the surviving fraction (TIOGUANINE [1]; 1 nM) was 0.711 ± 0.052 and the surviving fraction (TIOGUANINE [1]; 5 nM) was 0.9503 ± 0.0032. It also gave a surviving fraction (TIOGUANINE [1]; 10 nM) of 0.91 ± 0.048, a surviving fraction (TIOGUANINE [1]; 50 nM) of 1.03 ± 0.092 and a surviving fraction (TIOGUANINE [1]; 100 nM) of 1.02 ± 0.023. The surviving fraction (TIOGUANINE [1]; 500 nM) was 0.707 ± 0.043, the surviving fraction (TIOGUANINE [1]; 1000 nM) was 0.648 ± 0.061 and the surviving fraction (MDV3100 [2]; 0.5 nM) was 0.753 ± 0.059. The surviving fraction (MDV3100 [2]; 1 nM) was 0.772 ± 0.05, the surviving fraction (MDV3100 [2]; 5 nM) was 0.976 ± 0.063 and the surviving fraction (MDV3100 [2]; 10 nM) was 1.07 ± 0.15. The surviving fraction (MDV3100 [2]; 50 nM) was 0.983 ± 0.098, the surviving fraction (MDV3100 [2]; 100 nM) was 1.02 ± 0.05 and the surviving fraction (MDV3100 [2]; 500 nM) was 0.834 ± 0.059. The surviving fraction (MDV3100 [2]; 1000 nM) was 0.868 ± 0.044, the surviving fraction ([3]; 0.5 nM) was 0.878 ± 0.066 and the surviving fraction ([3]; 1 nM) was 0.99 ± 0.041. For the same test system, the surviving fraction ([3]; 5 nM) was 1.02 ± 0.094, the surviving fraction ([3]; 10 nM) was 1.03 ± 0.036 and the surviving fraction ([3]; 50 nM) was 0.952 ± 0.046. It also gave a surviving fraction ([3]; 100 nM) of 0.833 ± 0.063, a surviving fraction ([3]; 500 nM) of 0.335 ± 0.011 and a surviving fraction ([3]; 1000 nM) of 0.0597 ± 0.025. It also gave a surviving fraction (SNX-5422 [4]; 0.5 nM) of 1.03 ± 0.086, a surviving fraction (SNX-5422 [4]; 1 nM) of 0.977 ± 0.073 and a surviving fraction (SNX-5422 [4]; 5 nM) of 1.03 ± 0.048. For the same test system, the surviving fraction (SNX-5422 [4]; 10 nM) was 1.01 ± 0.069, the surviving fraction (SNX-5422 [4]; 50 nM) was 0.316 ± 0.025 and the surviving fraction (SNX-5422 [4]; 100 nM) was 0.208 ± 0.086. It also gave a surviving fraction (SNX-5422 [4]; 500 nM) of 0.056 ± 0.022, a surviving fraction (SNX-5422 [4]; 1000 nM) of 0.0593 ± 0.025 and a surviving fraction (BI-2536 [5]; 0.5 nM) of 1.12 ± 0.021. The surviving fraction (BI-2536 [5]; 1 nM) was 1.13 ± 0.085, the surviving fraction (BI-2536 [5]; 5 nM) was 0.266 ± 0.052 and the surviving fraction (BI-2536 [5]; 10 nM) was 0.073 ± 0.011. For the same test system, the surviving fraction (BI-2536 [5]; 50 nM) was 0.0473 ± 0.0068, the surviving fraction (BI-2536 [5]; 100 nM) was 0.036 ± 0.007 and the surviving fraction (BI-2536 [5]; 500 nM) was 0.0303 ± 0.01. For the same test system, the surviving fraction (BI-2536 [5]; 1000 nM) was 0.032 ± 0.015, the surviving fraction (AFATINIB [6]; 0.5 nM) was 0.907 ± 0.059 and the surviving fraction (AFATINIB [6]; 1 nM) was 1.02 ± 0.12. For the same test system, the surviving fraction (AFATINIB [6]; 5 nM) was 0.909 ± 0.046, the surviving fraction (AFATINIB [6]; 10 nM) was 0.939 ± 0.085 and the surviving fraction (AFATINIB [6]; 50 nM) was 0.507 ± 0.0065. For the same test system, the surviving fraction (AFATINIB [6]; 100 nM) was 0.417 ± 0.0072, the surviving fraction (AFATINIB [6]; 500 nM) was 0.337 ± 0.038 and the surviving fraction (AFATINIB [6]; 1000 nM) was 0.23 ± 0.0027. It also gave a surviving fraction (CANERTINIB [7]; 0.5 nM) of 1.08 ± 0.039, a surviving fraction (CANERTINIB [7]; 1 nM) of 1 ± 0.057 and a surviving fraction (CANERTINIB [7]; 5 nM) of 1.37 ± 0.12. For the same test system, the surviving fraction (CANERTINIB [7]; 10 nM) was 1.04 ± 0.11, the surviving fraction (CANERTINIB [7]; 50 nM) was 1.1 ± 0.015 and the surviving fraction (CANERTINIB [7]; 100 nM) was 0.84 ± 0.025. For the same test system, the surviving fraction (CANERTINIB [7]; 500 nM) was 0.578 ± 0.044, the surviving fraction (CANERTINIB [7]; 1000 nM) was 0.349 ± 0.006 and the surviving fraction (SAPACITABINE [8]; 0.5 nM) was 1.09 ± 0.078. For the same test system, the surviving fraction (SAPACITABINE [8]; 1 nM) was 0.987 ± 0.071, the surviving fraction (SAPACITABINE [8]; 5 nM) was 1.12 ± 0.026 and the surviving fraction (SAPACITABINE [8]; 10 nM) was 0.981 ± 0.059. For the same test system, the surviving fraction (SAPACITABINE [8]; 50 nM) was 0.711 ± 0.08, the surviving fraction (SAPACITABINE [8]; 100 nM) was 0.457 ± 0.029 and the surviving fraction (SAPACITABINE [8]; 500 nM) was 0.214 ± 0.024. For the same test system, the surviving fraction (SAPACITABINE [8]; 1000 nM) was 0.142 ± 0.021, the “area under dose-response curve” value (TIOGUANINE [9]) was 2.8 and the “area under dose-response curve” value (MDV3100 [10]) was 3.15. For the same test system, the “area under dose-response curve” value [11] was 2.75, the “area under dose-response curve” value (SNX-5422 [12]) was 1.96 and the “area under dose-response curve” value (BI-2536 [13]) was 0.996. The “area under dose-response curve” value (AFATINIB [14]) was 2.23 and the “area under dose-response curve” value (SAPACITABINE [15]) was 2.35.

CCK81 LARGE INTESTINE showed a surviving fraction (MDV3100 [2]; 0.5 nM) of 0.843 ± 0.11, a surviving fraction (MDV3100 [2]; 1 nM) of 0.8 ± 0.19 and a surviving fraction (MDV3100 [2]; 5 nM) of 0.717 ± 0.076. It also gave a surviving fraction (MDV3100 [2]; 10 nM) of 0.728 ± 0.046, a surviving fraction (MDV3100 [2]; 50 nM) of 0.75 ± 0.091 and a surviving fraction (MDV3100 [2]; 100 nM) of 0.757 ± 0.068. The surviving fraction (MDV3100 [2]; 500 nM) was 0.79 ± 0.03, the surviving fraction (MDV3100 [2]; 1000 nM) was 0.728 ± 0.06 and the surviving fraction (CANERTINIB [7]; 0.5 nM) was 0.778 ± 0.19. The surviving fraction (CANERTINIB [7]; 1 nM) was 0.874 ± 0.16, the surviving fraction (CANERTINIB [7]; 5 nM) was 0.928 ± 0.13 and the surviving fraction (CANERTINIB [7]; 10 nM) was 0.816 ± 0.18. The surviving fraction (CANERTINIB [7]; 50 nM) was 0.186 ± 0.03, the surviving fraction (CANERTINIB [7]; 100 nM) was 0.0957 ± 0.019 and the surviving fraction (CANERTINIB [7]; 500 nM) was 0.0373 ± 0.0083. For the same test system, the surviving fraction (CANERTINIB [7]; 1000 nM) was 0.0263 ± 0.0059, the surviving fraction (SAPACITABINE [8]; 0.5 nM) was 0.972 ± 0.18 and the surviving fraction (SAPACITABINE [8]; 1 nM) was 0.94 ± 0.2. It also gave a surviving fraction (SAPACITABINE [8]; 5 nM) of 0.813 ± 0.13, a surviving fraction (SAPACITABINE [8]; 10 nM) of 0.7 ± 0.13 and a surviving fraction (SAPACITABINE [8]; 50 nM) of 0.427 ± 0.12. For the same test system, the surviving fraction (SAPACITABINE [8]; 100 nM) was 0.482 ± 0.041, the surviving fraction (SAPACITABINE [8]; 500 nM) was 0.456 ± 0.047 and the surviving fraction (SAPACITABINE [8]; 1000 nM) was 0.47 ± 0.056. For the same test system, the “area under dose-response curve” value (MDV3100 [10]) was 2.49, the “area under dose-response curve” value (CANERTINIB [16]) was 1.68 and the “area under dose-response curve” value (SAPACITABINE [15]) was 2.16.

— the supplement of paper PMC6045584
